This passage reports MIC results from ChEMBL document CHEMBL4052616, “Isoniazid derivatives and their anti-tubercular activity” (Eur J Med Chem, 2017).

The assay concerns Mycobacterium tuberculosis. Briefly: Antimycobacterial activity against human resistant Mycobacterium tuberculosis measured after six weeks. In kind it is functional.

Molecules are shown by their SMILES. In brackets after ≈: the same amount, converted by molar mass.

Turning to `C=CCN1C(=O)/C(=N\NC(=O)c2ccncc2)c2ccccc21`, the MIC lay in the range of 2.7 to 3.5 µg/mL (≈ 8.81 to 11.4 µM).
In the case of `O=C(N/N=C1\C(=O)N(Cc2ccccc2)c2ccccc21)c1ccncc1` it was 2.7 to 3.5 µg/mL (≈ 7.58 to 9.82 µM).

For orientation: MIC means the least concentration at which growth counts as inhibited. A high value points to a less susceptible organism.
